10 compounds from ChEMBL document CHEMBL1132777, “Novel, potent and selective chimeric FXa inhibitors featuring hydrophobic P1-ketoamide moieties” (Bioorg Med Chem Lett, 2000) can be followed below.

Each structure is given as a SMILES string. Bounds are passed on as bounds.

In test [1] the target is T1, Coagulation factor X (Homo sapiens, UniProt P00742). In words: Inhibitory activity against Coagulation factor X.
Target sequence in this assay (P00742 41-179 limits assumed): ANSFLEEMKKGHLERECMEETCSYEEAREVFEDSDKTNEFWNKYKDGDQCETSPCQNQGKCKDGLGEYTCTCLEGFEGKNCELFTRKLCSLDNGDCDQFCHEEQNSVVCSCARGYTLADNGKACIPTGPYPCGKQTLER
Target sequence in this assay (P00742 235-488 limits assumed): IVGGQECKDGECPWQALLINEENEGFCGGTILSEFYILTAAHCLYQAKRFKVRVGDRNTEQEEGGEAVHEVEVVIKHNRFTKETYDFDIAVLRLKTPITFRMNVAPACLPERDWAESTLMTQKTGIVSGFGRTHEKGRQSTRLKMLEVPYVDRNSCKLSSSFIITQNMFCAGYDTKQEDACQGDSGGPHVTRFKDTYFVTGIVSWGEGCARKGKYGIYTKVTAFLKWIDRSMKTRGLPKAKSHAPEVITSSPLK
In test [2] the target is T2, Plasminogen (Homo sapiens, UniProt P00747). In words: In vitro inhibitory activity against plasmin.
For test [3], the target named is T3, Prothrombin (Homo sapiens, UniProt P00734). The test is described as follows: In vitro inhibitory activity against Thrombin (FIIa).
For test [4], the target named is T4, Serine protease 1 (Homo sapiens, UniProt P07477). The test is described as follows: In vitro inhibitory activity against Human trypsin.
Test [5] concerns the target T2, Plasminogen. In words: In vitro inhibitory activity against plasmin; inactive.
The target of test [6] is T4, Serine protease 1. The test is described as follows: In vitro inhibitory activity against Human trypsin; inactive.
Test [7] addresses T1, Coagulation factor X. The test is described as follows: In vitro inhibitory activity against prothrombinase (PTase) complex.
Target sequence in this assay (P00742 whole entry): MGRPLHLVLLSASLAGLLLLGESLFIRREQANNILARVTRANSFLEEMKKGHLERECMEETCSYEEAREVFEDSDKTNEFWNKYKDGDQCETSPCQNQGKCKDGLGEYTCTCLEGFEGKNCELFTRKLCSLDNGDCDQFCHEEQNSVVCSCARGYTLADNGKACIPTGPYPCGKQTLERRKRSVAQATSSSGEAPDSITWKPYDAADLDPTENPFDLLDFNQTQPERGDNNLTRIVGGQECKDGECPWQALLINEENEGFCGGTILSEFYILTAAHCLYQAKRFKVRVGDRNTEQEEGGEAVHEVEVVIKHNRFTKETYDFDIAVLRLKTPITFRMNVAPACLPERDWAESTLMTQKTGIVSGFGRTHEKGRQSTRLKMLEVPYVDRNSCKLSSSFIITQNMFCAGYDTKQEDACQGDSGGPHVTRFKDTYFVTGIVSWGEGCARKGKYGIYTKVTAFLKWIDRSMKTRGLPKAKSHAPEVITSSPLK
In test [8] the target is T3, Prothrombin. The test is described as follows: In vitro inhibitory activity against Thrombin (FIIa); inactive.

T2 sequence (P00747 97-580 limits assumed): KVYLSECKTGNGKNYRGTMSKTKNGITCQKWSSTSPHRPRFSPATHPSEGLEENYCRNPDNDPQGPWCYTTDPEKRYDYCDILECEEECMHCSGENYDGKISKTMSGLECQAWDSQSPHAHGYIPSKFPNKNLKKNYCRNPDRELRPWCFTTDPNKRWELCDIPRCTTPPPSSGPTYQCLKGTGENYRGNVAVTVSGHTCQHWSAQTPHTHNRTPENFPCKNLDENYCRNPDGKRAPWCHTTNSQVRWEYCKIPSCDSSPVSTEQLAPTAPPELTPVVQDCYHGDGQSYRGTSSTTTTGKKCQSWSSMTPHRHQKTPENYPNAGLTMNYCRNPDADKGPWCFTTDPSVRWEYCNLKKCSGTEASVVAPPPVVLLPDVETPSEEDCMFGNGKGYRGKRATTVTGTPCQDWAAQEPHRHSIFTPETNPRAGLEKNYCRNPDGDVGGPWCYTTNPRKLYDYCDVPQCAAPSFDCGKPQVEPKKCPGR
T2 sequence (P00747 581-810 limits assumed): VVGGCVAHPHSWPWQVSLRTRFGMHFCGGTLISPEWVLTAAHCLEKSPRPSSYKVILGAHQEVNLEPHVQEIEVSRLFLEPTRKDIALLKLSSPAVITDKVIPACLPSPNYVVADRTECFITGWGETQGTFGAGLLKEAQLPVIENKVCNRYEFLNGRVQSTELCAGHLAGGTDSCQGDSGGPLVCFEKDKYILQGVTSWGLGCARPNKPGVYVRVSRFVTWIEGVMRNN
T4 sequence (P07477 whole entry): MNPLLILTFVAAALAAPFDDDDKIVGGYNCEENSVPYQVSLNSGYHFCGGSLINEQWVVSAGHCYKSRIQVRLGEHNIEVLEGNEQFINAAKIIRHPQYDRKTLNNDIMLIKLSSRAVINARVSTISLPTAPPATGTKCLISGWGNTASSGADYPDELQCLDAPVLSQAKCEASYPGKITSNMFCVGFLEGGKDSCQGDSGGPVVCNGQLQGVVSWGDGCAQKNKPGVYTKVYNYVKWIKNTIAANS

For orientation: IC50 means the concentration that inhibits the measured activity by half. As for `CCCCCNC(=O)C(=O)[C@H](CC1CCCCC1)NC(=O)CN(C)C(=O)[C@@H](CCCN=C(N)N)NS(=O)(=O)Cc1ccccc1`, the 50% inhibitory concentration (IC50) in test [1] was 1.87 nM; in test [2], > 2500 nM; in test [3], 3830 nM; in test [4], 163 nM.

Consider `CCOC(=O)CNC(=O)C(=O)[C@H](CC1CCCCC1)NC(=O)CN(C)C(=O)[C@@H](CCCN=C(N)N)NS(=O)(=O)Cc1ccccc1`, for which the IC50 is 2.13 nM in test [1], “Not Active” in test [5], > 2500 nM in test [3] and “Not Active” in test [6].

Consider `CCOC(=O)CNC(=O)C(=O)[C@H](Cc1ccccc1)NC(=O)CN(C)C(=O)[C@@H](CCCN=C(N)N)NS(=O)(=O)Cc1ccccc1`, for which the IC50 was 6.6 nM in test [1]; “Not Active” in test [5]; 25.1 nM in test [7]; > 2500 nM in test [3]; > 2500 nM in test [4].

`CCOC(=O)CNC(=O)C(=O)[C@H](Cc1ccc(OC(C)(C)C)cc1)NC(=O)CN(C)C(=O)[C@@H](CCCN=C(N)N)NS(=O)(=O)Cc1ccccc1.O=C(O)C(F)(F)F`: the IC50 in test [1] was 246 nM; in test [2], > 2500 nM; in test [8], “Not Active”; in test [6] it was “Not Active”.

With `CN(CC(=O)N[C@H]1CCCC(C(=N)N)C1O)C(=O)[C@@H](CCCN=C(N)N)NS(=O)(=O)Cc1ccccc1` (some centres undefined), the IC50 is 0.86 nM in test [1]; 1200 nM in test [2]; 3.4 nM in test [7]; > 2500 nM in test [3]; 74.7 nM in test [4].

`CCOC(=O)CNC(=O)C(=O)[C@H](Cc1ccc(O)cc1)NC(=O)CN(C)C(=O)[C@@H](CCCN=C(N)N)NS(=O)(=O)Cc1ccccc1.O=C(O)C(F)(F)F`: the IC50 in test [1] was 7.63 nM; in test [5], “Not Active”; in test [7], 29.2 nM; in test [3], > 2500 nM; in test [6] it was “Not Active”.

For `CN(CC(=O)N[C@@H](Cc1ccccc1)C(=O)C(=O)NCC(=O)NCCc1ccccc1)C(=O)[C@@H](CCCN=C(N)N)NS(=O)(=O)Cc1ccccc1.O=C(O)C(F)(F)F`, the IC50 was 7.89 nM in test [1]; “Not Active” in test [5]; 25.9 nM in test [7]; > 2500 nM in test [3]; “Not Active” in test [6].

In the case of `CN(CC(=O)N[C@@H](CC1CCCCC1)C(=O)C(=O)NCCc1ccccc1)C(=O)[C@@H](CCCN=C(N)N)NS(=O)(=O)Cc1ccccc1`, the concentration for half-maximal inhibition (IC50) in test [1] is 13.2 nM; in test [5] it was “Not Active”; in test [3] it was 2210 nM; in test [4] it was > 2500 nM.

Regarding `CN(CC(=O)N[C@@H](CC1CCCCC1)C(=O)C(=O)NCc1ccc2c(c1)OCO2)C(=O)[C@@H](CC/N=C(\N)N[N+](=O)[O-])NS(=O)(=O)Cc1ccccc1`, the concentration for half-maximal inhibition (IC50) in test [1] is 46.4 nM; in test [5], “Not Active”; in test [3], > 2500 nM; in test [6], “Not Active”.

In the case of `CN(CC(=O)N[C@@H](CC1CCCCC1)C(=O)C(=O)NCc1ccccc1)C(=O)[C@@H](CCCN=C(N)N)NS(=O)(=O)Cc1ccccc1`, the IC50 in test [1] was 3.26 nM; in test [2], > 2500 nM; in test [3], 1960 nM; in test [4], 2500 nM.
